Experimental data published in patent publication US10494366B2, “Pesticidally active amide heterocyclic derivatives with sulphur containing substituents” (Syngenta Participations AG, priority 2014, dated 2019).

Assays:
Assay type in all cases: in vivo
[1] = system: Spodoptera littoralis (Egyptian cotton leaf worm); assay: Example B2: Spodoptera littoralis, systemic test via lettuce roots in agar; conditions: 144 h, application rate 12.5 ppm, Spodoptera eggs, 6 days after infestation, read-out: control in at least one of the three categories (mortality, anti-feedancy or growth inhibition)
Source text: Test compounds were applied by pipette from 10,000 ppm DMSO stock solutions into 24-well plates and mixed with agar. Lettuce seeds were placed on the agar and the multi well plate was closed by another plate which contains also agar. After 7 days the roots have absorbed the compound and the lettuce has grown into the lid plate. The lettuce leafs were now cut off into the lid plate. Spodoptera eggs were pipetted through a plastic stencil on a humid gel blotting paper and the plate closed with it. The samples were assessed for mortality, anti-feedant effect and growth inhibition in comparison to untreated samples 6 days after infestation.
The following compounds gave an effect of at least 80% control in at least one of the three categories (mortality, anti-feedancy or growth inhibition) at an application rate of 12.5 ppm: P2, P3, P8, P9, P11 and P17, P19, P20, P22, P23, P25, P26, P28, P30, P31, P32, P33, P40, P42, P43, P44, P45, P46, P47, P48, P49, P50, P51, P52, P53, P54, P60 and P61.

[2] = system: Myzus persicae (green peach aphid); assay: Example B5: Myzus persicae, sprayed sunflower leaf discs; conditions: foliar, 144 h, application rate 200 ppm, aphid population of mixed ages, 6 days after infestation
Description: Sunflower leaf discs were placed on agar in a 24-well microtiter plate and sprayed with aqueous test solutions prepared from 10,000 ppm DMSO stock solutions. After drying, the leaf discs were infested with an aphid population of mixed ages. The samples were assessed for mortality 6 days after infestation.

[3] = system: Tetranychus urticae (two-spotted spider mite); assay: Example B8: Tetranychus urticae, sprayed bean leaf discs; conditions: foliar, 192 h, application rate 200 ppm, mixed population (mobile stages), 8 days after infestation
Source text: Bean leaf discs on agar in 24-well microtiter plates were sprayed with aqueous test solutions prepared from 10,000 ppm DMSO stock solutions. After drying the leaf discs were infested with a mite population of mixed ages.

[4] = system: Spodoptera littoralis (Egyptian cotton leaf worm); assay: Example B1: Spodoptera littoralis, sprayed cotton leaf discs; conditions: foliar, 72 h, application rate 200 ppm, L1 larvae, 3 days after infestation, read-out: control in at least one of the three categories (mortality, anti-feedancy or growth inhibition)
[5] = system: Euschistus heros (neotropical brown stink bug); assay: Example B6: Euschistus heros, sprayed soybean leaf; conditions: 120 h, application rate 200 ppm, N-2 nymphs, 5 days after infestation
Source text: Soybean leaf on agar in 24-well microtiter plates were sprayed with aqueous test solutions prepared from 10,000 ppm DMSO stock solutions. After drying the leaf were infested with N-2 nymphs.

[6] = system: Diabrotica balteata (corn root worm); assay: Example B4: Diabrotica balteata, sprayed maize sprouts; conditions: 96 h, application rate 200 ppm, L2 larvae, 4 days after infestation, read-out: effect in at least one of the two categories (mortality or growth inhibition)
Description: Maize sprouts, placed on an agar layer in 24-well microtiter plates were treated with aqueous test solutions prepared from 10,000 ppm DMSO stock solutions by spraying. After drying, the plates were infested with L2 larvae (6 to 10 per well). The samples were assessed for mortality and growth inhibition in comparison to untreated samples 4 days after infestation.

[7] = system: Plutella xylostella (diamond back moth); assay: Example B3: Plutella xylostella, treated artificial diet; conditions: 120 h, application rate 200 ppm, L2 larvae, 5 days after infestation, read-out: effect in at least one of the two categories (mortality or growth inhibition)
Description: 24-well microtiter plates with artificial diet were treated with aqueous test solutions prepared from 10,000 ppm DMSO stock solutions by pipetting. After drying, the plates were infested with L2 larvae (10 to 15 per well). The samples were assessed for mortality and growth inhibition in comparison to untreated samples 5 days after infestation.

[8] = system: Myzus persicae (green peach aphid); assay: Example B7: Myzus persicae, systemic test with roots of pea seedlings in test solution; conditions: 144 h, test rate 24 ppm, aphid population of mixed ages, 6 days
Source text: Roots of pea seedlings infested with an aphid population of mixed ages were placed directly in the aqueous test solutions prepared from 10,000 DMSO stock solutions.

[9] = system: Bemisia tabaci (cotton white fly); assay: Example B10: Bemisia tabaci, sprayed cotton leaf discs; conditions: foliar, 144 h, application rate 200 ppm, adult white flies, 6 days after incubation
Description: Cotton leaf discs were placed on agar in 24-well microtiter plates and sprayed with aqueous test solutions prepared from 10,000 ppm DMSO stock solutions. After drying the leaf discs were infested with adult white flies. The samples were checked for mortality 6 days after incubation.

CCS(=O)(=O)c1cc(-c2ccc(C(F)(F)F)cc2)cnc1C(=O)/N=c1\sc(C(F)(F)C(F)(F)F)nn1C [Compound P8]
≥ 80%: percent control (mortality, anti-feedant effect or growth inhibition) at 12.5 ppm [1] | mortality at 200 ppm [2] | mortality at 200 ppm [3] | percent control (mortality, anti-feedant effect or growth inhibition) at 200 ppm [4] | mortality at 200 ppm [5] | percent effect (mortality or growth inhibition) at 200 ppm [6] | percent effect (mortality or growth inhibition) at 200 ppm [7]

CCS(=O)(=O)c1cc(-c2ncccn2)cnc1C(=O)/N=c1\sc(C(F)(F)F)nn1C [Compound P42]
≥ 80%: percent control (mortality, anti-feedant effect or growth inhibition) at 12.5 ppm [1] | mortality at 200 ppm [2] | percent control (mortality, anti-feedant effect or growth inhibition) at 200 ppm [4] | mortality at 200 ppm [5] | percent effect (mortality or growth inhibition) at 200 ppm [6] | percent effect (mortality or growth inhibition) at 200 ppm [7] | mortality at 24 ppm [8]

CCS(=O)(=O)c1cc(C2(C#N)CC2)cnc1C(=O)/N=c1\sc(C(F)(F)C(F)(F)F)nn1C [Compound P20, (N)-5-(1-cyanocyclopropyl)-3-ethylsulfonyl-N-[3-methyl-5-(1,1,2,2,2-pentafluoroethyl)-1,3,4-thiadiazol-2-ylidene]pyridine-2-carboxamide]
≥ 80%: percent control (mortality, anti-feedant effect or growth inhibition) at 12.5 ppm [1] | mortality at 200 ppm [2] | mortality at 200 ppm [9] | percent control (mortality, anti-feedant effect or growth inhibition) at 200 ppm [4] | mortality at 200 ppm [5] | percent effect (mortality or growth inhibition) at 200 ppm [6] | percent effect (mortality or growth inhibition) at 200 ppm [7]

CCS(=O)(=O)c1cc(C2CC2)cnc1C(=O)/N=c1\sc(C(F)(F)F)nn1C [Compound P63]
≥ 80%: mortality at 200 ppm [2] | percent control (mortality, anti-feedant effect or growth inhibition) at 200 ppm [4] | mortality at 200 ppm [5] | percent effect (mortality or growth inhibition) at 200 ppm [6] | percent effect (mortality or growth inhibition) at 200 ppm [7] | mortality at 24 ppm [8]

CCS(=O)(=O)c1cc(-c2ccc(Cl)c(Cl)n2)cnc1C(=O)/N=c1\sc(C(F)(F)F)nn1C [Compound P45]
≥ 80%: percent control (mortality, anti-feedant effect or growth inhibition) at 12.5 ppm [1] | mortality at 200 ppm [2] | mortality at 200 ppm [3] | percent control (mortality, anti-feedant effect or growth inhibition) at 200 ppm [4] | mortality at 200 ppm [5] | percent effect (mortality or growth inhibition) at 200 ppm [6] | percent effect (mortality or growth inhibition) at 200 ppm [7]

CCS(=O)(=O)c1cc(-c2ncccn2)cnc1C(=O)/N=c1\ccc(SC(F)(F)F)cn1C [Compound P17, (N)-3-ethylsulfonyl-N-[1-methyl-5-(trifluoromethylsulfanyl)-2-pyridylidene]-5-pyrimidin-2-yl-pyridine-2-carboxamide]
≥ 80%: percent control (mortality, anti-feedant effect or growth inhibition) at 12.5 ppm [1] | mortality at 200 ppm [2] | percent control (mortality, anti-feedant effect or growth inhibition) at 200 ppm [4] | mortality at 200 ppm [5] | percent effect (mortality or growth inhibition) at 200 ppm [6] | percent effect (mortality or growth inhibition) at 200 ppm [7] | mortality at 24 ppm [8]

CCS(=O)(=O)c1cc(-c2cccc(OC(F)(F)F)c2)cnc1C(=O)/N=c1\sc(C(F)(F)F)nn1C [Compound P31]
≥ 80%: percent control (mortality, anti-feedant effect or growth inhibition) at 12.5 ppm [1] | mortality at 200 ppm [3] | percent control (mortality, anti-feedant effect or growth inhibition) at 200 ppm [4] | percent effect (mortality or growth inhibition) at 200 ppm [6] | percent effect (mortality or growth inhibition) at 200 ppm [7]

CCS(=O)(=O)c1cc(-c2ncc(Cl)s2)cnc1C(=O)/N=c1\sc(C(F)(F)F)nn1C [Compound P57]
≥ 80%: mortality at 200 ppm [9] | percent control (mortality, anti-feedant effect or growth inhibition) at 200 ppm [4] | percent effect (mortality or growth inhibition) at 200 ppm [6] | percent effect (mortality or growth inhibition) at 200 ppm [7]

CCS(=O)(=O)c1cc(-c2cncs2)cnc1C(=O)/N=c1\sc(C(F)(F)F)nn1C [Compound P39]
≥ 80%: mortality at 200 ppm [9] | percent control (mortality, anti-feedant effect or growth inhibition) at 200 ppm [4] | percent effect (mortality or growth inhibition) at 200 ppm [6]
